Results published in US20110172296A1, “MODULATION OF TRANSFORMING GROWTH FACTOR-BETA 1 EXPRESSION” (priority 2010, published 2011).
Several values for one entry are separate records, joined by “and”; a condition that tells them apart may be missing. Equal values may be shown once. In the oligonucleotide strings, read from the 5' end, every base follows the letter of its sugar. An asterisk marks phosphorothioate; unmarked linkages are phosphodiester. Other units and linkages are bracketed, terminal groups are in braces. A string of capitals states the bases alone. e = 2'-O-(2-methoxyethyl) (MOE); [5mC] = 5-methylcytosine; d = 2'-deoxy (DNA)

Test system: human TGF-beta1 mRNA
Assay: Antisense inhibition of human TGF-beta1 mRNA in HuVEC cells, single 10 nM dose, Lipofectamine 2000 (Example 2)
Format: cell-based
Conditions: for % inhibition: 10 nM oligonucleotide, HuVEC, relative to untreated control cells; for inhibition of a TGF-beta1 mRNA: threshold lists of Oligo IDs, 10 nM
Description: Antisense oligonucleotides targeted to a TGF-beta1 nucleic acid were tested for their effects on TGF-beta1 mRNA in vitro. Cultured HuVEC cells at a density of 5,000 cells per well were transfected using Lipofectamine™ 2000 reagent with 10 nM antisense oligonucleotide for 4 hours. After a recovery period of approximately 24 hours, RNA was isolated from the cells and TGF-beta1 mRNA levels were measured by quantitative real-time PCR. TGF-beta1 mRNA levels were adjusted according to total RNA content, as measured by RIBOGREEN®. Results are presented as percent inhibition of TGF-beta1, relative to untreated control cells.
The chimeric antisense oligonucleotides in Tables 1 and 2 were designed as 2-13-5 MOE gapmers. Antisense molecules with this motif targeting TGF-beta1 are unique, and represent a novel chemical structure for an ASO directed against this target. The gapmers are 20 nucleotides in length, wherein the central gap segments are comprised of thirteen 2′-deoxynucleotides and are flanked on the 5′ side by wings comprising two nucleotides each and on the 3′ side by wings comprising five nucleotides each. Each nucleotide in the 5′ wing segment and each nucleotide in the 3′ wing segment has a 2′-MOE modification. The internucleoside linkages throughout each gapmer are phosphorothioate (P═S) linkages. All cytosine residues throughout each gapmer are 5-methylcytosines. “Target start site” indicates the 5′-most nucleotide to which the gapmer is targeted. “Target stop site” indicates the 3′-most nucleotide to which the gapmer is targeted. Each gapmer listed in Table 1 is targeted to SEQ ID NO: 1 (GENBANK Accession No. NM_000660.3). Each gapmer listed in Table 2 is targeted to SEQ ID NO: 2 (GENBANK Accession No. NT 011109.15 truncated from 14103000 to […]).

[1] = gapmers targeted to SEQ ID NO: 1

Substance | % inhibition [1] | inhibition of a TGF-beta1 mRNA | % inhibition (gapmers targeted to SEQ ID NO: 2)
414006 (antisense eT*eA*d[5mC]*d[5mC]*dA*dG*dA*dA*dG*dG*dT*dG*dG*dG*dT*eG*eG*eT*e[5mC]*eT) [compound 414006] | 85% | 60% and 65% and 70% and 75% and 80% and 85% | –
414007 (antisense eG*eG*dT*dA*d[5mC]*d[5mC]*dA*dG*dA*dA*dG*dG*dT*dG*dG*eG*eT*eG*eG*eT) [compound 414007] | 94% | 60% and 65% and 70% and 75% and 80% and 85% and 90% | –
414008 (antisense e[5mC]*eT*dG*dG*dT*dA*d[5mC]*d[5mC]*dA*dG*dA*dA*dG*dG*dT*eG*eG*eG*eT*eG) [compound 414008] | 89% | 60% and 65% and 70% and 75% and 80% and 85% | –
414009 (antisense eA*eT*d[5mC]*dT*dG*dG*dT*dA*d[5mC]*d[5mC]*dA*dG*dA*dA*dG*eG*eT*eG*eG*eG) [compound 414009] | 80% | 60% and 65% and 70% and 75% and 80% | –
414010 (antisense e[5mC]*eG*dA*dT*d[5mC]*dT*dG*dG*dT*dA*d[5mC]*d[5mC]*dA*dG*dA*eA*eG*eG*eT*eG) [compound 414010] | 88% | 60% and 65% and 70% and 75% and 80% and 85% | –
414011 (antisense e[5mC]*eG*d[5mC]*dG*dA*dT*d[5mC]*dT*dG*dG*dT*dA*d[5mC]*d[5mC]*dA*eG*eA*eA*eG*eG) [compound 414011] | 85% | 60% and 65% and 70% and 75% and 80% and 85% | –
414012 (antisense eG*eG*d[5mC]*dG*d[5mC]*dG*dA*dT*d[5mC]*dT*dG*dG*dT*dA*d[5mC]*e[5mC]*eA*eG*eA*eA) [compound 414012] | 87% | 60% and 65% and 70% and 75% and 80% and 85% | –
414013 (antisense eT*eG*dG*dG*d[5mC]*dG*d[5mC]*dG*dA*dT*d[5mC]*dT*dG*dG*dT*eA*e[5mC]*e[5mC]*eA*eG) [compound 414013] | 90% | 60% and 65% and 70% and 75% and 80% and 85% and 90% | –
414014 (antisense eG*eA*dT*dG*dG*dG*d[5mC]*dG*d[5mC]*dG*dA*dT*d[5mC]*dT*dG*eG*eT*eA*e[5mC]*e[5mC]) [compound 414014] | 89% | 60% and 65% and 70% and 75% and 80% and 85% | –
414015 (antisense e[5mC]*e[5mC]*dT*dA*dG*dA*dT*dG*dG*dG*d[5mC]*dG*d[5mC]*dG*dA*eT*e[5mC]*eT*eG*eG) [compound 414015] | 83% | 60% and 65% and 70% and 75% and 80% | –
414016 (antisense eA*eA*d[5mC]*d[5mC]*dT*dA*dG*dA*dT*dG*dG*dG*d[5mC]*dG*d[5mC]*eG*eA*eT*e[5mC]*eT) [compound 414016] | 78% | 60% and 65% and 70% and 75% | –
414017 (antisense eA*eT*dA*dA*d[5mC]*d[5mC]*dT*dA*dG*dA*dT*dG*dG*dG*d[5mC]*eG*e[5mC]*eG*eA*eT) [compound 414017] | 77% | 60% and 65% and 70% and 75% | –
414018 (antisense eA*eA*dA*dT*dA*dA*d[5mC]*d[5mC]*dT*dA*dG*dA*dT*dG*dG*eG*e[5mC]*eG*e[5mC]*eG) [compound 414018] | 82% | 60% and 65% and 70% and 75% and 80% | –
414019 (antisense eG*eG*dA*dA*dA*dT*dA*dA*d[5mC]*d[5mC]*dT*dA*dG*dA*dT*eG*eG*eG*e[5mC]*eG) [compound 414019] | 78% | 60% and 65% and 70% and 75% | –
414020 (antisense eG*eG*dA*dG*dG*d[5mC]*d[5mC]*d[5mC]*d[5mC]*dG*d[5mC]*d[5mC]*d[5mC]*d[5mC]*dT*eG*e[5mC]*eA*eG*eG) [compound 414020] | 0% | – | –
414021 (antisense eT*eG*dT*dA*d[5mC]*dA*dG*dG*dG*d[5mC]*dG*dA*dG*d[5mC]*dA*e[5mC]*eG*eG*e[5mC]*e[5mC]) [compound 414021] | – | 60% and 65% and 70% | 74%
414023 (antisense eT*e[5mC]*dG*dG*dG*d[5mC]*dT*d[5mC]*d[5mC]*dG*dG*dT*dT*d[5mC]*dT*eG*e[5mC]*eA*e[5mC]*eT) [compound 414023] | 78% | 60% and 65% and 70% and 75% | –

Substance | % inhibition [1] | inhibition of a TGF-beta1 mRNA | % inhibition (gapmers targeted to SEQ ID NO: 2)
414024 (antisense eG*e[5mC]*dT*d[5mC]*dG*dG*dG*d[5mC]*dT*d[5mC]*d[5mC]*dG*dG*dT*dT*e[5mC]*eT*eG*e[5mC]*eA) [compound 414024] | 83% | 60% and 65% and 70% and 75% and 80% | –
414025 (antisense eA*eG*dG*d[5mC]*dT*d[5mC]*dG*dG*dG*d[5mC]*dT*d[5mC]*d[5mC]*dG*dG*eT*eT*e[5mC]*eT*eG) [compound 414025] | 79% | 60% and 65% and 70% and 75% | –
414026 (antisense e[5mC]*e[5mC]*dT*d[5mC]*dA*dG*dG*d[5mC]*dT*d[5mC]*dG*dG*dG*d[5mC]*dT*e[5mC]*e[5mC]*eG*eG*eT) [compound 414026] | 82% | 60% and 65% and 70% and 75% and 80% | –
414027 (antisense eG*eG*d[5mC]*d[5mC]*dT*d[5mC]*dA*dG*dG*d[5mC]*dT*d[5mC]*dG*dG*dG*e[5mC]*eT*e[5mC]*e[5mC]*eG) [compound 414027] | 84% | 60% and 65% and 70% and 75% and 80% | –
414028 (antisense e[5mC]*e[5mC]*dA*dT*dT*dA*dG*d[5mC]*dA*d[5mC]*dG*d[5mC]*dG*dG*dG*eT*eG*eA*e[5mC]*e[5mC]) [compound 414028] | 75% | 60% and 65% and 70% and 75% | –
414029 (antisense eG*eA*dG*d[5mC]*dT*d[5mC]*dT*dG*dA*dT*dG*dT*dG*dT*dT*eG*eA*eA*eG*eA) [compound 414029] | 73% | 60% and 65% and 70% | –
414030 (antisense e[5mC]*eT*dA*dA*dG*dG*d[5mC]*dG*dA*dA*dA*dG*d[5mC]*d[5mC]*d[5mC]*eT*e[5mC]*eA*eA*eT) [compound 414030] | 60% | 60% | –
414031 (antisense eA*eT*dG*dT*d[5mC]*d[5mC]*dA*d[5mC]*dT*dT*dG*d[5mC]*dA*dG*dT*eG*eT*eG*eT*eT) [compound 414031] | 66% | 60% and 65% | –
414032 (antisense eG*eG*dG*dT*dT*dA*dT*dG*d[5mC]*dT*dG*dG*dT*dT*dG*eT*eA*e[5mC]*eA*eG) [compound 414032] | 80% | 60% and 65% and 70% and 75% and 80% | –
414033 (antisense e[5mC]*eT*d[5mC]*d[5mC]*dA*d[5mC]*d[5mC]*dT*dT*dG*dG*dG*d[5mC]*dT*dT*eG*e[5mC]*eG*eG*e[5mC]) [compound 414033] | 80% | 60% and 65% and 70% and 75% and 80% | –
414034 (antisense e[5mC]*e[5mC]*dT*dT*dA*dA*dA*dT*dA*d[5mC]*dA*dG*d[5mC]*d[5mC]*d[5mC]*e[5mC]*e[5mC]*eA*eT*eG) [compound 414034] | 68% | 60% and 65% | –
414038 (antisense eA*e[5mC]*dG*dG*dG*dT*dG*dT*d[5mC]*d[5mC]*dT*dT*dA*dA*dA*eT*eA*e[5mC]*eA*eG) [compound 414038] | 85% | 60% and 65% and 70% and 75% and 80% and 85% | –
414039 (antisense eG*e[5mC]*dA*d[5mC]*dG*dG*dG*dT*dG*dT*d[5mC]*d[5mC]*dT*dT*dA*eA*eA*eT*eA*e[5mC]) [compound 414039] | 83% | 60% and 65% and 70% and 75% and 80% | –
414041 (antisense eA*e[5mC]*dA*dG*dA*dG*dA*dT*d[5mC]*d[5mC]*dG*d[5mC]*dA*dG*dT*e[5mC]*e[5mC]*eT*e[5mC]*eT) [compound 414041] | 74% | 60% and 65% and 70% | –
414042 (antisense e[5mC]*eG*d[5mC]*d[5mC]*d[5mC]*dA*dA*dT*dG*dA*d[5mC]*dA*d[5mC]*dA*dG*eA*eG*eA*eT*e[5mC]) [compound 414042] | 68% | 60% and 65% | –
414043 (antisense e[5mC]*e[5mC]*dT*dT*dG*dA*dT*dG*d[5mC]*d[5mC]*dG*dG*dG*d[5mC]*dA*eA*eA*eG*eG*eA) [compound 414043] | 64% | 60% | –
414044 (antisense eA*eT*d[5mC]*dT*dA*dA*d[5mC]*dT*dA*d[5mC]*dA*dG*dT*dA*dG*eT*eG*eT*eT*e[5mC]) [compound 414044] | 31% | – | –
